Data from patent publication US5852005A, “Tetracyclic triterpenes” (Novartis AG, priority 1994, dated 1998).
In brackets after ≈: the same amount, converted by molar mass. Like-named read-outs stand apart in the source and are kept apart here.

Key:
[1] = system: Spleen cells (proliferative response of lymphocytes to allogenic stimulation); test: Two-way MLR (Murine Mixed Lymphocyte Reaction); type: cell-based, mouse (Balb/c, CBA); settings: Table 5
Experimental: 1. Proliferative Response Of Lymphocytes to Allogenic Stimulation
Two-way MLR (Murine Mixed Lymphocyte Reaction)
Spleen cells (0.5×106) from Balb/c mice (female, 8-10 weeks) are co-incubated for 5 .sctn.days with 0.5×10^6 spleen cells from CBA mice (female, 8-10 weeks). The allogenic cells induce a proliferative response in the responder spleen cell population which is measured by labelled precursor incorporation into the DNA. Test compounds are added at the start of incubation at varying concentrations and proliferative response compared with untreated controls.
(§1) Fractions are dissolved in ethanol and tested in the Mishell-Dutton assay (primary humoral immune-response to SRBC in vitro, MD) a mixed lymphocyte reaction (MLR) and on the P-815 mastocytoma cell line for cytotoxicity.

P-815 mastocytoma cells = test: Cytotoxic and cytostatic activity in vitro using the P-815 mastocytoma cell line; type: cell-based; settings: Table 5
Experimental: as §1

Jurkat cells = test: Cytotoxic and cytostatic activity using transformed human T-cell line (Jurkat); type: cell-based; settings: Table 5
Experimental: 2. Cytotoxic and cytostatic activity using a transformed human T-cell line (Jurkat)
5×10^4 Jurkat cells are grown in a final volume of 0.2 ml for 72 hours after which the cell numbers are enumerated by use of an enzymatic assay using p-nitrophenyl-N-acetyl-β-D-glucosamindle as substrate. Test compounds are added at varying concentration at the start of culture and cytotoxicity compared with untreated controls.

[2] = system: DTH reaction (footpad swelling); test: DTH (delayed-type hypersensitivity) induced by SRBC-TH cells; type: in vivo, mouse (C57 BL/6); settings: Mus musculus, po, 24 h, read-out: TEST 9 (DTH) ED50
Experimental: 50 μl of the SRBC cell suspension (diluted 1:1 v/v with PBS) is injected s.c. into the left hind footpad (to measure non specific increase in footpad swelling due to the injection procedure). Right and left hind footpad thickness is measured 24 hours later.

[3] = system: systemic lupus erythematosus (disease onset); test: Systemic lupus erythematosus (SLE) in the mouse (NZB/NZW); type: in vivo, mouse (NZB/NZW F1); settings: po, read-out: TEST 10 (SLE) ED100
Experimental: 10. Systemic lupus erythematosus (SLE) in the mouse (NZB/NZW)
Female New Zealand black/white (NZB/NZW) F1 mice spontaneously develop characteristics that resemble systemic lupus erythematosus. […] Treatment starts at 24 weeks of age when animals show proteinurea. Compounds are administered p.o. 3 times a week for a total of 12 weeks. Status is determined every second week and animals are sent for histological evaluation at termination of the experiment Ten mice are used per group.

[4] = system: GvH reaction (popliteal lymph node weight); test: Localised Graft-versus-Host (GvH) Reaction in the rat; type: in vivo; settings: up to about 100× more active than corresponding 17β-epimers
Experimental: 4. Localised Graft-versus-Host (GvH) Reaction in the rat
Spleen cells (1×10^7) from 6 week old female Wistar/Furth (WE) rats are injected subcutaneously on day 0 into the left hind-paw of female (F344×WF)F1 rats weighing about 100 g. Animals are treated for 4 consecutive days and the popliteal lymph nodes are removed and weighed on day 7. The difference in weight between the two lymph nodes is taken as the parameter for evaluating the reaction. Test compounds are administered daily for 4 days at varying dosage p.o. and inhibition compared with untreated controls. Dammara compounds are active (inhibit GvH reaction) in this test model at doses of the order of from 10 μg to 10 mg/kg/day p.o..

SMILES	IC50 MLR [1]	IC50 P-815 (P-815 mastocytoma cells)	IC50 Jurkat (Jurkat cells)	IC50 ([1]; Mus musculus, Lymphocyte)	ED50 ([2]; one trial run)	IC50 (P-815 mastocytoma cells; Mus musculus, P815)	ED100 ([3]; one trial run)	activity relative to corresponding 17β-epimers [4]	IC50 (Jurkat cells; Homo sapiens, Jurkat)	ED50 [2]	ED100 [3]
COc1cc([C@@H]2c3cc4c(cc3C[C@H]3COC(=O)[C@@H]32)OCO4)cc(OC)c1OC [Silicicolin, reference compound]	0.002 µg/mL (≈ 5.02 nM)	0.004 µg/mL (≈ 10 nM)	0.0025 µg/mL (≈ 6.27 nM)								
C=C(C/C=C/C(C)(C)O)[C@@H]1CC[C@]2(C)[C@@H]1CC[C@@H]1[C@@]3(C)CC[C@H](O)C(C)(C)[C@@H]3CC[C@]12C [compound of formula IC, (17α)-23-(E)-dammara-20,23-diene-3β,25-diol]	0.011 µg/mL			0.0105 µg/mL	0.004 mg/kg	> 5 µg/mL	0.01 mg/kg	up to 100 ×	> 5 µg/mL		
C=C(C/C=C/C(C)(C)O)[C@H]1CC[C@]2(C)[C@@H]1CC[C@@H]1[C@@]3(C)CC[C@H](O)C(C)(C)[C@@H]3CC[C@]12C [β-EPIMER OF IC, (17β)-23-(E)-dammara-20,23-dien-3β,25-diol]										10 mg/kg	10 mg/kg
